# Biological target: T1, aryl hydrocarbon receptor (AHR) (Homo sapiens, UniProt P35869)
# T1 sequence (P35869 11-848): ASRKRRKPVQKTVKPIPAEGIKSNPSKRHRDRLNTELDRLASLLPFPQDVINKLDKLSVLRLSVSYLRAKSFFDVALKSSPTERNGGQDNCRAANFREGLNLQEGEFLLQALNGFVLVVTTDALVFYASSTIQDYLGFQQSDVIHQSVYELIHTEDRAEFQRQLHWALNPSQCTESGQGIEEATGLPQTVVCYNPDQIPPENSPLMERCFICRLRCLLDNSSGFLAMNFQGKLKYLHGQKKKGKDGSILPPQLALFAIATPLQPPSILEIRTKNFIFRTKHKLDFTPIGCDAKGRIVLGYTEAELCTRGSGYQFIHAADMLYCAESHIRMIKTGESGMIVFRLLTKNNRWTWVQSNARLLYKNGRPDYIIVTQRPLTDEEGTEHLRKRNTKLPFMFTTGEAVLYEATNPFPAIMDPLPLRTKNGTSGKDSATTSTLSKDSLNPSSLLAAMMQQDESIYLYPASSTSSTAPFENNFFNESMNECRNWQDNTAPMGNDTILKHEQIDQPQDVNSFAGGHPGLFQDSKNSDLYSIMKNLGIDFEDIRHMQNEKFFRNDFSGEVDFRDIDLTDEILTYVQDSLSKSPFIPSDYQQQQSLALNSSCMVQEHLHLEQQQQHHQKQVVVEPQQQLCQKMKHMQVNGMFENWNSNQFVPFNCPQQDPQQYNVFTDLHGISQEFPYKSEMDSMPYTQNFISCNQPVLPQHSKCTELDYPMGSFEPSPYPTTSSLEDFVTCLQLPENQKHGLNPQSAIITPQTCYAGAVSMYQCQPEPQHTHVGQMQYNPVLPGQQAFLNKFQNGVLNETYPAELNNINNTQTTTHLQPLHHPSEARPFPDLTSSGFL
# Test: DRE-Luciferase reporter high-throughput screen (AHR antagonist, VAF347-activated)
row,SMILES,IC50 [nM]
1,Cc1ccc2cc(NC(=O)c3cccc4c3OC(C)(C)C4)ccc2n1 [50A],> 2000
2,CN1CCN(c2nc(-c3cc(F)ccc3F)cs2)CC1 [56A],> 2000
3,O=C(CNC1=NS(=O)(=O)c2ccccc21)OCc1cn(-c2ccccc2)nc1-c1ccccc1 [58B],> 2000
4,Cc1nn(-c2ccccc2)c(N)c1-c1nc(-c2ccc(Cl)cc2)cs1 [59A],> 2000
5,O=C(NCCc1ccccc1)c1cnc(-c2noc3ccccc23)s1 [60A],> 2000
6,Cc1csc(-c2ccc(NC(=O)NCc3cc(C)on3)cc2)n1 [62A],> 2000
7,Cc1nc(-c2ccccc2F)sc1C(=O)NCc1ccccn1 [63A],> 2000
8,c1ccc2nc(SCc3nc4ccccc4[nH]3)ccc2c1 [65B],1000 to 2000
9,Nc1cnc(C(=O)c2ccc(Cl)cc2)s1 [66A],1000 to 2000
10,Cc1nn(-c2nc3ccccc3[nH]2)c2c1C(=O)CC(c1cccs1)C2 (stereo not drawn) [66B],1000 to 2000
11,Cc1cc([N+](=O)[O-])c(N)cc1N1CCN(c2ccccc2)CC1 [67A],1000 to 2000
12,Cn1c(COc2cccc3ccccc23)nc2ccccc21 [67B],1000 to 2000
13,COc1ccc(N2CCN(c3nc(OC)nc(OC)n3)CC2)cc1 [68A],1000 to 2000
14,CN(Cc1ccsc1)c1nc2ccccn2c1[N+](=O)[O-] [68B],1000 to 2000
15,CC(=O)c1cnc(N2CCN(c3cccc(Cl)c3)CC2)nc1C [69A],1000 to 2000
16,Cc1cc(C)nc(N2CCN(c3ccc(Cl)cc3)CC2)n1 [70A],> 2000
17,O=C1CSC(N2CCN(c3ccc(Cl)c(Cl)c3)CC2)=N1 [71A],> 2000
18,COc1ccc(-c2cnn3c(C)cc(C)nc23)cc1OC [71B],1000 to 2000
19,FC(F)(F)c1nnc2ccc(N3CCN(c4ccccc4)CC3)nn12 [73A],> 2000
20,COc1ccc(N2CCN(c3cc(C)nn4cnnc34)CC2)cc1 [74A],> 2000
21,Cc1nc2nc(SCc3ccc(Cl)cc3)nn2c(C)c1Cl [74B],1000 to 2000
22,c1ccc(N2CCN(c3nc(N4CCCCC4)nc4nccnc34)CC2)cc1 [75A],1000 to 2000

row,SMILES,IC50 [nM]
1,Cc1c(C(N)=O)nnc2cc(-c3ccccc3)nn12 [75B],1000 to 2000
2,CC1CN=C(N2CCN(c3nc4c(cc3C#N)CCC4)CC2)S1 (stereo not drawn) [76A],1000 to 2000
3,Cc1nc(N2CCN(c3ccccc3F)CC2)nc2c1C(=O)CCC2 [77A],1000 to 2000
4,Cc1cnn(Cc2ncc(-c3ccccc3Br)o2)c1 [77B],> 2000
5,Cc1ccc(N2CCN(C(=O)Nc3cc(F)cc(F)c3)CC2)nn1 [78A],1000 to 2000
6,Cc1cc(N(C)C)nc(N2CCN(C(=O)Nc3cccc(F)c3)CC2)n1 [79A],1000 to 2000
7,Cc1cc(C)c(C#N)c(SCc2cc(-c3cccs3)on2)n1 [79B],1000 to 2000
8,N#Cc1ccc(N2CCN(C(=O)Nc3cccc(C(F)(F)F)c3)CC2)nc1 [80A],1000 to 2000
9,O=C(Nc1cccnc1N1CCN(c2ncc(C(F)(F)F)cc2Cl)CC1)c1ccc(F)cc1 [81A],1000 to 2000
10,Fc1ccc(-c2cc(N3CCCCC3)on2)cc1 [81B],> 2000
11,CCOC(=O)N1CCN(c2nc(Nc3ccc(C)cc3C)c3nccnc3n2)CC1 [82A],1000 to 2000
12,Clc1ccc(/C=N/Nc2nc3cc(Cl)ccc3[nH]2)cc1 [83A],> 2000
13,COC(OC)c1ccnc(-c2ccc(I)c(F)c2)n1 [84A],1000 to 2000
14,CSc1cc(CSc2ccc(Cl)cc2)nc(-c2ccccn2)n1 [85A],1000 to 2000
15,COc1cccc(-c2cc(C(F)(F)F)nc(-n3cc(Cl)cn3)n2)c1 [86A],1000 to 2000
16,Clc1ccc(-c2noc(-c3c[nH]nc3-c3ccccc3)n2)cc1 [86B],> 2000
17,Clc1ccccc1CNc1ccc(-c2ccccc2)nn1 [87A],1000 to 2000
18,COc1cccc(Nc2ccc(-c3ccccc3)nn2)c1 [88A],> 2000
19,COc1cccc(-c2ccc(SCc3cccnc3)nn2)c1 [89A],> 2000
20,COc1ccc(Cl)cc1C(=O)NCc1ccc(Cl)cc1 [89B],1000 to 2000
21,CCOc1ccc(-c2ccc(SCC)nn2)cc1 [90A],> 2000

# Further lines, results first:
row,IC50 [nM],SMILES
1,1000 to 2000,Brc1ccc(-c2ccc(NC3CCCC3)nn2)cc1 [49B]
2,500 to 1000,CN(/N=C/c1cc(Br)cs1)c1ccc(Cl)nn1 [50B]
3,1000 to 2000,Cc1cccnc1NC(=O)c1cc2c(ccc3ccccc32)[nH]1 [51A]
4,1000 to 2000,Cc1ccc(OCc2nc(N)nc(N(C)C)n2)cc1C [51B]
5,1000 to 2000,COc1ccccc1NC(=O)c1sc2nc(N3CCOCC3)c3c(c2c1N)CCCC3 [52A]
6,200 to 500,O=[N+]([O-])c1ccc(-n2cnc(-c3ccc(F)cc3)c2)nc1 [52B]
7,1000 to 2000,Cn1c(SCc2ccccc2Cl)nnc1-c1csc(-c2cccnc2)n1 [53A]
8,1000 to 2000,Cn1c(Cl)cnc1-c1cc(=O)c2cc(Cl)ccc2o1 [53B]
9,1000 to 2000,c1ccc(-c2nc(COc3cccc(-n4cnnn4)c3)cs2)cc1 [54A]
10,500 to 1000,Fc1ccccc1OCc1cnn(-c2ccccc2)c1 [54B]
11,1000 to 2000,CC(=O)c1csc(COc2cc(Cl)cc(Cl)c2)n1 [55A]
12,500 to 1000,CC(=O)Nc1cn(-c2ccccc2)nc1-c1ccc(Cl)s1 [55B]
13,500 to 1000,CC(=O)Oc1ccc2c(=O)c(-c3cnn(-c4ccccc4)c3)coc2c1C [56B]
14,1000 to 2000,CS(=O)(=O)N1CCc2cc(-c3csc(Cc4cn5cc(Cl)cc(Cl)c5n4)n3)ccc21 [57A]
15,1000 to 2000,CCOC(=O)Nc1ccc(-n2ccc(C)n2)cc1 [57B]
16,1000 to 2000,CCN(C(=O)C1CC1)c1nc(-c2ccc(OC)cc2)cs1 [58A]
17,500 to 1000,CN(C)C(=O)c1ccc(-c2cc(C(F)(F)F)nn2C)s1 [59B]
18,1000 to 2000,CNC(=O)c1ccc(-c2cc(C(F)(F)F)nn2C)s1 [60B]
19,1000 to 2000,O=C(NC1CC1)c1cnc(-c2noc3ccccc23)s1 [61A]

row,IC50 [nM],SMILES
1,1000 to 2000,Cc1c(Br)c(C(=O)N2CCc3ccccc32)nn1C [61B]
2,500 to 1000,Cc1cc(C)c2cc(C(=O)N(C)Cc3ccc(C)o3)[nH]c2c1 [62B]
3,1000 to 2000,CCc1cccc2c(C(=O)CSc3nnnn3C)c[nH]c12 [63B]
4,1000 to 2000,CC(=O)c1sc(-c2ccc(Oc3ncnc4sccc34)cc2)nc1C [64A]
5,500 to 1000,Cc1ccc2[nH]c(SCc3ccccc3C)nc2c1 [64B]
6,1000 to 2000,CC(C)NC(=O)c1ccc2c(-c3nccs3)noc2c1 [65A]
7,< 200,CSc1nc2cc(-c3ccc(Cl)cc3)nn2c(N)c1C#N [69B]
8,500 to 1000,N#Cc1cnc2c(-c3ccc(Cl)cc3)cnn2c1 [70B]
9,< 200,Clc1ccc(-c2nc3cc(Br)cnc3[nH]2)cc1 [72B]
10,500 to 1000,CCOc1ccc(-n2nc3ccc(NC(=O)COc4ccccc4Cl)cc3n2)cc1 [73B]
11,200 to 500,Ic1ccc(-c2cnc(-c3ccncc3)o2)cc1 [76B]
12,500 to 1000,COc1ccc(Nc2oc(-c3ccccc3C)nc2C#N)cc1 [78B]
13,500 to 1000,Nc1nccc(-c2cc(-c3cccc(C(F)(F)F)c3)no2)n1 [80B]
14,500 to 1000,COc1ccc(NC(=O)CSc2nnc(-c3sc4nc(C)cc(C)c4c3N)o2)cc1 [82B]
15,500 to 1000,CCC(C)C(=O)Nc1ccc(-c2nnc(-c3ccccc3C)o2)cc1 (stereo not drawn) [83B]
16,500 to 1000,Clc1ccc(-c2noc(-c3csnn3)n2)cc1 [84B]
17,500 to 1000,c1ccc(-c2nc(-c3ccc4c(c3)CCO4)no2)cc1 [85B]
18,200 to 500,Cc1c(-c2nc(-c3ccc(C(C)(C)C)cc3)no2)n(C)oc1=O [87B]
19,200 to 500,Cc1c(COc2ccccc2C#N)cccc1[N+](=O)[O-] [88B]
